Source: patent publication US20190151283A1, “NON-STEROIDAL SELECTIVE GLUCOCORTICOID RECEPTOR AGONISTIC MODULATORS (SEGRAMs) AND USES THEREOF” (ASSOCIATION POUR LA RECHERCHE À L'IGBMC (ARI), priority 2017, published 2019)

Tested on: mice
Experiment: Ovalbumin (OVA)-induced asthma-like allergic lung inflammation
Type: in vivo, mouse
Procedure: Glucocorticoids have been (Pearlman et al., 1997. Ann Allergy Asthma Immunol. 78(4):356-62), and are still, widely used in asthma therapy. In order to investigate the possible CpdX anti-inflammatory activity in vivo, mice were sensitized and challenged with either ovalbumin (OVA) or house dust mite (HDM) to induce an asthma-like allergic lung inflammation.
Mice were intraperitoneally sensitized with either 50 μg OVA together with alum or with alum alone on D0, D7 and D14. Mice were then subdivided into three groups, and on D19, D20 and D21, they were intranasally (i.n.) challenged with 10 μg OVA. The first and the second group received intranasally 0.5 mg/kg of body weight of Dex or CpdX respectively, while the third group served as a control.
On D22, the lung allergic inflammation was assessed for each mouse by examination of the bronchoalveolar lavage fluid (BAL). The total BAL cells, eosinophils, neutrophils, macrophages and lymphocytes were counted. RNA transcripts were extracted from lung samples and RNA transcripts of IL-1β, IL-6, IL-4, IL-5, IL-10, IL-13, Eotaxin, CCL4 and TNFα were analyzed by q-RT-PCR. Histological (with H&E staining) and immunohistochemical (with eosinophil-specific and neutrophil-specific antibodies) analyses of lung tissues were also carried out.

COc1ccc(F)cc1C(C)(C)CC(O)(CNc1ccc2c(c1)COC2=O)C(F)(F)F (racemic) [CpdX, 5-[4-(5-fluoro-2-methoxyphenyl)-2-hydroxy-4-methyl-2-(trifluoromethyl)pentylamino]-isobenzofuran-1(3H)-one]
eosinophils and neutrophils in lung, immunohistochemistry (data not shown): similarly decreased
peribronchiolar and perivascular inflammatory cell infiltration (histology of lung paraffin sections): strongly decreased
number of macrophages in BAL (intranasal 0.5 mg/kg on D19-D21, BAL on D22): unchanged
total number of BAL cells, eosinophils, neutrophils and lymphocytes (intranasal 0.5 mg/kg on D19-D21, BAL on D22, vs control group): significantly decreased
expressions of IL-1β, IL-6, IL-4, IL-5, IL-10, IL-13, Eotaxin, CCL4 and TNFα in lung samples (q-RT-PCR, D22): significantly and similarly decreased
